The values below come from US20040087623A1, “Pyrazole derivatives against tgf overexpression” (priority 2001, published 2004).

Structures can show the parent of a compound that is named as a salt.

The IC50 is the concentration that inhibits the measured activity by half.

The subject of one assay is TGF-β signaling (PAI-1 promoter-luciferase in HepG2 cells). Description: Assay 1: inhibition of TGF-β induced PAI-1 promoter luciferase reporter in HepG2 cells. Conditions: 500 μM CPO with TGF-β; % of those obtained in column 11 (TGF-β only). In general terms: In a reporter assay the amount or activity of a reporter protein is the signal.
Method: The assay was performed in HepG2 cells stably transfected with the PAI-1 promoter (known to be a strong TGF-β responsive promoter) linked to a luciferase (firefly) reporter gene. The compounds were selected on their ability to inhibit luciferase activity in cells exposed to TGF-β. In addition cells were transfected with a second luciferase (Renilla) gene which was not driven by a TGF-β responsive promoter and was used as a toxicity control.
(96 well-)microplates are seeded, using a multidrop apparatus, with the stably transfected cell line at a concentration of 35000 cells per well in 200 μl of serum-containing medium. These plates are placed in a cell incubator.
18 to 24 hours later (Day 2), cell-incubation procedure is launched. Cells are incubated with TGF-β and a candidate compound at concentrations in the range 50 nM to 10 μM (final concentration of DMSO 1%). The final concentration of TGF-β (rhTGFβ-1) used in the test is 1 ng/mL. […] The final volume of the test reaction is 150 μl. Each well contains only one candidate compound and its effect on the PAI-1 promoter is monitored.
Columns 11 and 12 are employed as controls. Column 11 contains 8 wells in which the cells are incubated in the presence of TGF-β, without a candidate compound. Column 11 is used to determine the ‘reference TGF-β induced firefly luciferase value’ against which values measured in the test wells (to quantify inhibitory activity) may be compared. In wells A12 to D12, cells are grown in medium without TGF-β. The firefly luciferase values obtained from these positions are representative of the ‘basal firefly luciferase activity’. In wells E12 to H12, cells are incubated in the presence of TGF-β and 500 μM CPO (Cyclopentenone, Sigma), a cell toxic compound.
12 to 18 hours later (day 3), the luciferase quantification procedure is launched. The following reactions are performed using reagents obtained from a Dual Luciferase Assay Kit (Promega). Cells are washed and lysed with the addition of 10 μl of passive lysis buffer (Promega). Following agitation (15 to 30 mins), luciferase activities of the plates are read in a dual-injector luminometer (BMG lumistar). For this purpose, 50 μl of luciferase assay reagent and 50 μl of ‘Stop & Glo’ buffer are injected sequentially to quantify the activities of both luciferases. The mean Luciferase activity value obtained in wells A11 to H11 (Column 11, TGF-β only) is considered to represent 100% and values obtained in wells A12 to D12 (cells in medium alone) give a basal level (0%). For each of the compounds tested, a concentration response curve is constructed from which an IC50 value can be determined graphically.
In the case of `O=C1C=CCC1` [CPO, Cyclopentenone, reference compound], the “firefly and renilla luciferase activities (toxicity control)” value was “around 50%”.

Still in this assay, the particulars now being: Homo sapiens, HepG2, read-out: IC50 value in Assay 1.
On to `CN1CCN(C(=O)c2ccc(-c3cc(-c4c[nH]nc4-c4ccccn4)ccn3)cc2)CC1` [Example 38, 1-Methyl-4-{4-[4-(3-pyridin-2-yl-1H-pyrazol-4-yl)-pyridin-2-yl]-benzoyl}-piperazine], for which the IC50 is at most 5 µM. For `c1ccc(-c2cc(-c3c[nH]nc3-c3ccccn3)ccn2)cc1` [Example 1, 2-Phenyl-4-(3-pyridin-2-yl-1H-pyrazol-4-yl)pyridine], the concentration for half-maximal inhibition (IC50) was at most 5 µM. As for `CN(C)C1CCN(C(=O)c2ccc(-c3cc(-c4c[nH]nc4-c4ccccn4)ccn3)cc2)CC1` [Example 40, (4-Dimethylamino)-1-{4-[4-(3-pyridin-2-yl-1H-pyrazol-4-yl)-pyridin-2-yl]-benzoyl}-piperidine], the 50% inhibitory concentration (IC50) is at most 5 µM. The same measure, in the same setting: in the case of `COc1ccc(-c2cc(-c3c[nH]nc3-c3ccccn3)ccn2)cc1` [Example 3, 2-(4-Methoxyphenyl)-4-(3-pyridin-2-yl-1H-pyrazol-4-yl)pyridine] it was at most 5 µM. On the same count and under the same terms, in the case of `O=C(CN1CCOCC1)Nc1ccc(-c2cc(-c3c[nH]nc3-c3ccccn3)ccn2)cc1` [Example 23, 2-Morpholin-1-yl-N-{4-[4-(3-pyridin-2-yl-1H-pyrazol-4-yl)-pyridin-2-yl]phenyl}-acetamide] it was at most 5 µM; in that of `O=C(CN1CCCC1)Nc1ccc(-c2cc(-c3c[nH]nc3-c3ccccn3)ccn2)cc1` [Example 22, 2-Pyrrolidin-1-yl-N-{4-[4-(3-pyridin-2-yl-1H-pyrazol-4-yl)-pyridin-2-yl]-phenyl}-acetamide], at most 5 µM. As for `c1ccc(-c2n[nH]cc2-c2ccnc(-c3ccsc3)c2)nc1` [Example 10, 2-(Thiophen-3-yl)-4-(3-pyridin-2-yl-1H-pyrazol-4-yl)pyridine], the IC50 is at most 5 µM. With `Cn1cnc(COc2ccc(-c3cc(-c4c[nH]nc4-c4ccccn4)ccn3)cc2)c1` [Example 14, 2-[4-(1-Methyl-1-H-imidazol-4-ylmethoxy)-phenyl]-4-(3-pyridin-2-yl-1H-pyrazol-4-yl)-pyridine], the IC50 is at most 5 µM. In the case of `CCc1ccc(-c2cc(-c3c[nH]nc3-c3ccccn3)ccn2)cc1` [Example 9, 2-(4-Ethylphenyl)-4-(3-pyridin-2-yl-1H-pyrazol-4-yl)pyridine], the IC50 is at most 5 µM. Consider `c1ccc(-c2n[nH]cc2-c2ccnc(-c3ccco3)c2)nc1` [Example 6, 2-(Furan-2-yl)-4-(3-pyridin-2-yl-1H-pyrazol-4-yl)pyridine], for which the IC50 was at most 5 µM. Still for that read-out and setting: the value for `COC1CCN(Cc2ccc(-c3cc(-c4c[nH]nc4-c4ccccn4)ccn3)cc2)CC1` [Example 34, 4-Methoxy-1-{4-[4-(3-pyridin-2-yl-1H-pyrazol-4-yl)pyridin-2-yl]benzyl}-piperidine] was at most 5 µM; that for `O=C(CN1CCCCC1)Nc1ccc(-c2cc(-c3c[nH]nc3-c3ccccn3)ccn2)cc1` [Example 21, 2-Piperidin-1-yl-N-{4-[4-(3-pyridin-2-yl-1H-pyrazol-4-yl)-pyridin-2-yl]-phenyl}-acetamide] was at most 5 µM; that for `c1ccc(-c2n[nH]cc2-c2ccnc(-c3ccc(CN4CCOCC4)cc3)c2)nc1` [Example 19, {4-[4-(3-Pyridin-2-yl-1H-pyrazol-4-yl)pyridin-2-yl]benzyl}-morpholine hydrochloride] was at most 5 µM. Still for that read-out and setting: in the case of `COCCN(C)C(=O)c1ccc(-c2cc(-c3c[nH]nc3-c3ccccn3)ccn2)cc1` [Example 45, N-(2-Methoxy-ethyl)-N-methyl-4-[4-(3-pyridin-2-yl-1H-pyrazol-4-yl)-pyridin-2-yl]-benzamide] it was at most 5 µM; in that of `O=C(NC1CCOCC1)c1ccc(-c2cc(-c3c[nH]nc3-c3ccccn3)ccn2)cc1` [Example 28, 4-[4-(3-Pyridin-2-yl-1H-pyrazol-4-yl)-pyridin-2-yl]-N-(tetrahydro-pyran-4-yl)-benzamide], at most 5 µM; in that of `O=C(CCN1CCOCC1)Nc1ccc(-c2cc(-c3c[nH]nc3-c3ccccn3)ccn2)cc1` [Example 26], at most 5 µM. Still for that read-out and setting: the value for `CN(C)Cc1ccc(-c2cc(-c3c[nH]nc3-c3ccccn3)ccn2)cc1` [Example 43, Dimethyl-{4-[4-(3-pyridin-2-yl-1H-pyrazol-4-yl)pyridin-2-yl]-benzyl}-amine] was at most 5 µM; that for `N#CCCNCc1ccc(-c2cc(-c3c[nH]nc3-c3ccccn3)ccn2)cc1` [Example 12, 3-({4-[4-(3-Pyridin-2-yl-1H-pyrazol-4-yl)pyridin-2-yl]benzyl}amino)propanenitrile] was at most 5 µM. For `Cn1ccnc1COc1ccc(-c2cc(-c3c[nH]nc3-c3ccccn3)ccn2)cc1` [Example 15, 2-[4-(1-Methyl-1H-imidazol-2-ylmethoxy)-phenyl]-4-(3-pyridin-2-yl-1H-pyrazol-4-yl)pyridine], the IC50 was at most 5 µM. The same measure, in the same setting: in the case of `c1ccc(-c2n[nH]cc2-c2ccnc(-c3ccc(CNC4CCOCC4)cc3)c2)nc1` [Example 18] it was at most 5 µM. Same read-out and setting: in the case of `Clc1ccc(-c2cc(-c3c[nH]nc3-c3ccccn3)ccn2)cc1` [Example 5, 2-(4-Chlorophenyl)-4-(3-pyridin-2-yl-1H-pyrazol4-yl)pyridine] it was at most 5 µM; in that of `CN(Cc1ccc(-c2cc(-c3c[nH]nc3-c3ccccn3)ccn2)cc1)c1cccnc1` [Example 20, Pyridin-3-yl-methyl-{4-[4-(3-pyridin-2-yl-1H-pyrazol-4-yl)pyridin-2-yl]benzyl}-amine], at most 5 µM; in that of `O=C(c1ccc(-c2cc(-c3c[nH]nc3-c3ccccn3)ccn2)cc1)N1CCOCC1` [Example 39, 4-{4-[4-(3-Pyridin-2-yl-1H-pyrazol-4-yl)-pyridin-2-yl]-benzoyl}-morpholine], at most 5 µM. The same measure, in the same setting: the value for `FC(F)(F)c1ccc(-c2cc(-c3c[nH]nc3-c3ccccn3)ccn2)cc1` [Example 2, 2-[4(Trifluoromethyl)Phenyl]-4-(3-pyridin-2-yl-1H-pyrazol-4-yl) Pyridine] was at most 5 µM. As to `CN1CCN(CCC(=O)Nc2ccc(-c3cc(-c4c[nH]nc4-c4ccccn4)ccn3)cc2)CC1` [Example 27, 3-(4-Methyl-piperazin-1-yl)-N{4-[4-(3-pyridin-2-yl-1H-pyrazol-4-yl)-pyridin-2yl]-phenyl}-propionamide], the IC50 was at most 5 µM. Still for that read-out and setting: in the case of `c1ccc(-c2n[nH]cc2-c2ccnc(-c3ccc(OCCN4CCCC4)cc3)c2)nc1` [Example 11, 2-[4-(2-Pyrrolidin-1-ylethoxy)-phenyl]-4-(3-pyridin-2-yl-1H-pyrazol-4-yl)pyridine] it was at most 5 µM. With `O=C(NCC1CCOCC1)c1ccc(-c2cc(-c3c[nH]nc3-c3ccccn3)ccn2)cc1` [Example 44, 4-[4-(3-Pyridin-2-yl-1H-pyrazol-4-yl)-pyridin-2-yl]-N-(tetrahydropyran-4-yl-methyl)-benzamide], the IC50 was at most 5 µM.

Consider `c1ccc(-c2n[nH]cc2-c2ccnc(-c3ccc(N4CCOCC4)cc3)c2)nc1` [Example 13, 4-{4-[4-(3-Pyridin-2-yl-1H-pyrazol-4-yl)-pyridin-2-yl]-phenyl}-morpholine], for which the IC50 was at most 5 µM.

Take `O=C(CCN1CCCCC1)Nc1ccc(-c2cc(-c3c[nH]nc3-c3ccccn3)ccn2)cc1` [Example 25, 3-Piperidin-1-yl-N{4-[4-(3-pyridin-2-yl-1H-pyrazol-4-yl)-pyridin-2-yl]-phenyl}-propionamide hydrochloride]: the 50% inhibitory concentration (IC50) was at most 5 µM.

Consider `O=C(NCC1CCCCC1)c1ccc(-c2cc(-c3c[nH]nc3-c3ccccn3)ccn2)cc1` [Example 47, N-Cyclohexylmethyl-4-[4-(3-pyridin-2-yl-1H-pyrazol-4-yl)-pyridin-2-yl]-benzamide], for which the IC50 is at most 5 µM. `Cn1cncc1COc1ccc(-c2cc(-c3c[nH]nc3-c3ccccn3)ccn2)cc1` [Example 16, 2-[4-(3-Methyl-3H-imidazol-4-ylmethoxy)-phenyl]-4-(3-pyridin-2-yl-1-H-pyrazol-4)-pyridine]: the IC50 is at most 5 µM. The same measure, in the same setting: the value for `COCCNC(=O)c1ccc(-c2cc(-c3c[nH]nc3-c3ccccn3)ccn2)cc1` [Example 46, N-(2-Methoxy-ethyl)-4-[4-(3-pyridin-2-yl-1H-pyrazol-4-yl)-pyridin-2-yl]-benzamide] was at most 5 µM. Same read-out and setting: the value for `CN1CCC(NCc2ccc(-c3cc(-c4c[nH]nc4-c4ccccn4)ccn3)cc2)CC1` [Example 37, (1-Methyl-piperidin-4-yl)-{4-[4-(3-pyridin-2-yl-1H-pyrazol-4-yl)pyridin-2-yl]benzyl}-amine] was at most 5 µM; that for `c1ccc(-c2n[nH]cc2-c2ccnc(-c3ccc(OCCn4ccnc4)cc3)c2)nc1` [Example 17, 2-[4-(2-{1H-Imidazol-1-yl}-ethoxy)-phenyl]-4-(3-pyridin-2-yl-1H-pyrazol-4-yl)-pyridine] was at most 5 µM; that for `Fc1ccc(-c2cc(-c3c[nH]nc3-c3ccccn3)ccn2)cc1` [Example 4, 2-(4-Fluorophenyl)-4-(3-pyridin-2-yl-1H-pyrazol-4-yl)pyridine] was at most 5 µM. The same measure, in the same setting: the value for `CN1CCN(CC(=O)Nc2ccc(-c3cc(-c4c[nH]nc4-c4ccccn4)ccn3)cc2)CC1` [Example 24, 2-(4-Methyl-piperazin-1-yl)-N-{4-[4-(3-pyridin-2-yl-1H-pyrazol-4-yl)-pyridin-2-yl]-phenyl}-acetamide] was at most 5 µM; that for `Cc1ccc(-c2cc(-c3c[nH]nc3-c3ccccn3)ccn2)cc1` [Example 8, 2-(4-Methylphenyl)-4-(3-pyridin-2-yl-1H-pyrazol-4-yl)pyridine] was at most 5 µM; that for `CCN1CCCC1CNC(=O)c1ccc(-c2cc(-c3c[nH]nc3-c3ccccn3)ccn2)cc1` (stereo not shown) [Example 29, N-(1-Ethyl-pyrolidin-2-ylmethyl)-4-[4-(3-pyridin-2-yl-1H-pyrazol-4-yl)-pyridin-2-yl]-benzamide] was at most 5 µM. Regarding `FC(F)(F)Oc1ccc(-c2cc(-c3c[nH]nc3-c3ccccn3)ccn2)cc1` [Example 7, 2-(4-Trifluoromethoxyphenyl)-4-(3-pyridin-2-yl-1H-pyrazol-4-yl)pyridine], the half-inhibitory concentration (IC50) is at most 5 µM.
